Molecular target: T1, CCDC6-RET (Homo sapiens, UniProt P07949+Q16204+Q96SW2)
T1 construct: CCDC6 (natural N-terminal fusion partner, UniProt Q16204); endogenous in cells; host or cells: TPC-1 (parental, papillary thyroid carcinoma)
Assay: Cellular RET degradation, AlphaLISA, TPC-1 cell line
Assay type: cell-based
Details: for Dmax: TPC1, human, 24 h, read-out: Cell Density TPC-1/CCDC6-RET Ymax %; for DC50: read-out: Cell Density TPC-1/CCDC6-RET DC50, half-maximal degradation concentration, TPC-1 (CCDC6-RET), 24 hrs
In short: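 Luminescent AlphaLISA read of RET abundance in lysates after 24 h compound exposure (37 °C, 2% FBS DMEM) of CCDC6-RET-bearing TPC-1 cells. % degradation relative to DMSO (high) and media (low) controls, fitted to 4-parameter logistic curve for DC50 and Ymax.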

T1 sequence (Q16204+P07949 fused): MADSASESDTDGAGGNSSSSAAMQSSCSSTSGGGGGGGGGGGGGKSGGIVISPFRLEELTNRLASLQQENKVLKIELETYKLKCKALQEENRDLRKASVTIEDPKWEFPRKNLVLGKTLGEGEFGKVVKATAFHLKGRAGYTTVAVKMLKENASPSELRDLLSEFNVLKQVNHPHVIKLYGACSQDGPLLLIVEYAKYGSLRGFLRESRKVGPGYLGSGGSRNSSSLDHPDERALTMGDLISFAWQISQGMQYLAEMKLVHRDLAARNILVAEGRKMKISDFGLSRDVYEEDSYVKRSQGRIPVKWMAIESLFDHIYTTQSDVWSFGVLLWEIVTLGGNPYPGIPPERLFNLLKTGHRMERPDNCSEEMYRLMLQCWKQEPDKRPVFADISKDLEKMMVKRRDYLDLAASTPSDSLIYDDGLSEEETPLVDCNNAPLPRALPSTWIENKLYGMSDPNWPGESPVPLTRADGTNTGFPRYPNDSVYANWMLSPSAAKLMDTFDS
T1 sequence (Q96SW2 whole entry, the tested form may be a part): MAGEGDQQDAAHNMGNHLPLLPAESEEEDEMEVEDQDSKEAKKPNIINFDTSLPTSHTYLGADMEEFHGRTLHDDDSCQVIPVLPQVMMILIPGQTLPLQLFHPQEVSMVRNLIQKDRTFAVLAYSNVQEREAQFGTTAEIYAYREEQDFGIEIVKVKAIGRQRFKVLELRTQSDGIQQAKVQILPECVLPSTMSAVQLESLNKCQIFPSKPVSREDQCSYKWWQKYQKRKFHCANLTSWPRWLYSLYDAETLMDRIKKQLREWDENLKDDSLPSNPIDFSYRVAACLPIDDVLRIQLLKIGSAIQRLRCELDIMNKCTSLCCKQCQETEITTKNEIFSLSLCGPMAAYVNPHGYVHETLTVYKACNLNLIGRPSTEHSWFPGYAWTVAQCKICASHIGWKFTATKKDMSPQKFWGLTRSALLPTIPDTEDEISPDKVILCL
T1 sequence (Q16531 whole entry partner, the tested form may be a part): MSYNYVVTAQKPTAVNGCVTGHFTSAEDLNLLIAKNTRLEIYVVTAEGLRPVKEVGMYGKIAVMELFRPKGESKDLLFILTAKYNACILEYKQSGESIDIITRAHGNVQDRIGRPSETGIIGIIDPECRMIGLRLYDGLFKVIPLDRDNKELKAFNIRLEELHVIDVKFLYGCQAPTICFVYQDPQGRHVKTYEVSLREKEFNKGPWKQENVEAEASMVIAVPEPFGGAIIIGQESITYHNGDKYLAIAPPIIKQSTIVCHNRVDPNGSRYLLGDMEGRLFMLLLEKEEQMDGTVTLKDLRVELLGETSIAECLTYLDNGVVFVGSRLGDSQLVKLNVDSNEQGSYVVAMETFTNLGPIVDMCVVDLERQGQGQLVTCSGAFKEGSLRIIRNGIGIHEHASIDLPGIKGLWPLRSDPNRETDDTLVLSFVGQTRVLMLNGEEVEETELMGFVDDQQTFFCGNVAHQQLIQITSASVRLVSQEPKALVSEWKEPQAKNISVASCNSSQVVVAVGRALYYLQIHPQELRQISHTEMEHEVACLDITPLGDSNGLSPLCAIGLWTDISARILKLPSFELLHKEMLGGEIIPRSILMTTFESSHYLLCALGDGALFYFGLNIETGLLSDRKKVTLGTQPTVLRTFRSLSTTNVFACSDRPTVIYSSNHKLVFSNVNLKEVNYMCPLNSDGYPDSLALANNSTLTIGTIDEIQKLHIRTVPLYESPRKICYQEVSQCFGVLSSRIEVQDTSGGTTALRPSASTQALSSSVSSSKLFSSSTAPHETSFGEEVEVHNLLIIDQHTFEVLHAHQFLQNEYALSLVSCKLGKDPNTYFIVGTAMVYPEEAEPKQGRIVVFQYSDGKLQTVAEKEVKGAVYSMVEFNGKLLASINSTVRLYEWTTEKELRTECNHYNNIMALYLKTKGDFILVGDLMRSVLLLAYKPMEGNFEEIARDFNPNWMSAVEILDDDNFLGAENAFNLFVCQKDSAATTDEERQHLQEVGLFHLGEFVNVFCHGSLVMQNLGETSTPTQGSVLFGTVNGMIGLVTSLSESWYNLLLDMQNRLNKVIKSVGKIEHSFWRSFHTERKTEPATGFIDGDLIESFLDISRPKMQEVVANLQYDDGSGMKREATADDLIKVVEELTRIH

Compound	Dmax [%]	DC50 [nM]
CCOc1cc(-c2ccc(N3CCC(CN4CCN(C(=O)CCOCCN5CCN(c6ccc7c(c6)CN(C6CCC(=O)NC6=O)C7=O)CC5)CC4)(NC(=O)c4cc(F)ccc4F)CC3)nc2)c2c(C#N)cnn2c1 (stereo not drawn) [Example 104, N-[1-(5-{3-cyano-6-ethoxypyrazolo[1,5-a]pyridin-4-yl}pyridin-2-yl)-4-({4-[3-(2-{4-[2-(2,6-dioxopiperidin-3-yl)-1-oxo-2,3-dihydro-1H-isoindol-5-yl]piperazin-1-yl}ethoxy)propanoyl]piperazin-1-yl}methyl)piperidin-4-yl]-2,5-difluorobenzamide]	60 to 90	2 to 10
CCOc1cc(-c2ccc(N3CCC(CN4CCN(C(=O)CCOCCNc5ccc6c(N7CCC(=O)NC7=O)nn(C)c6c5)CC4)(NC(=O)c4cc(F)ccc4F)CC3)nc2)c2c(C#N)cnn2c1 [Example 105, N-[1-(5-{3-cyano-6-ethoxypyrazolo[1,5-a]pyridin-4-yl}pyridin-2-yl)-4-({4-[3-(2-{[3-(2,4-dioxo-1,3-diazinan-1-yl)-1-methyl-1H-indazol-6-yl]amino}ethoxy)propanoyl]piperazin-1-yl}methyl)piperidin-4-yl]-2,5-difluorobenzamide]	60 to 90	2 to 10
CCOc1cc(-c2ccc(N3CCC(CN4CCN(CCOCCOCCC(=O)Nc5ccc6c(N7CCC(=O)NC7=O)nn(C)c6c5)CC4)(NC(=O)c4cc(F)ccc4F)CC3)nc2)c2c(C#N)cnn2c1 [Example 108, N-[1-(5-{3-cyano-6-ethoxypyrazolo[1,5-a]pyridin-4-yl}pyridin-2-yl)-4-[(4-{2-[2-(2-{[3-(2,4-dioxo-1,3-diazinan-1-yl)-1-methyl-1H-indazol-6-yl]carbamoyl}ethoxy)ethoxy]ethyl}piperazin-1-yl)methyl]piperidin-4-yl]-2,5-difluorobenzamide]	60 to 90	10 to 100
CCOc1cc(-c2ccc(N3CCC(CN4CCN(CCOCCOCCC(=O)N5CCN(c6ccc7c(c6)CN(C6CCC(=O)NC6=O)C7=O)CC5)CC4)(NC(=O)c4cc(F)ccc4F)CC3)nc2)c2c(C#N)cnn2c1 (stereo not drawn) [Example 109, N-[1-(5-{3-cyano-6-ethoxypyrazolo[1,5-a]pyridin-4-yl}pyridin-2-yl)-4-[(4-{2-[2-(3-{4-[2-(2,6-dioxopiperidin-3-yl)-1-oxo-2,3-dihydro-1H-isoindol-5-yl]piperazin-1-yl}-3-oxopropoxy)ethoxy]ethyl}piperazin-1-yl)methyl]piperidin-4-yl]-2,5-difluorobenzamide]	60 to 90	10 to 100
CCOc1cc(-c2ccc(N3CCC(CN4CCN(CC5CCN(C(=O)c6ccc7c(c6)C(=O)N(C6CCC(=O)NC6=O)C7)CC5)CC4)(NC(=O)c4cc(F)ccc4F)CC3)nc2)c2c(C#N)cnn2c1 (stereo not drawn) [Example 110, N-[1-(5-{3-cyano-6-ethoxypyrazolo[1,5-a]pyridin-4-yl}pyridin-2-yl)-4-{[4-({1-[2-(2,6-dioxopiperidin-3-yl)-3-oxo-2,3-dihydro-1H-isoindole-5-carbonyl]piperidin-4-yl}methyl)piperazin-1-yl]methyl}piperidin-4-yl]-2,5-difluorobenzamide]	60 to 90	2 to 10
CCOc1cc(-c2ccc(N3CCC(CN4CCN(CC5CCN(C(=O)Cc6cccc7c6CN(C6CCC(=O)NC6=O)C7=O)CC5)CC4)(NC(=O)c4cc(F)ccc4F)CC3)nc2)c2c(C#N)cnn2c1 (stereo not drawn) [Example 111, N-[1-(5-{3-cyano-6-ethoxypyrazolo[1,5-a]pyridin-4-yl}pyridin-2-yl)-4-({4-[(1-{2-[2-(2,6-dioxopiperidin-3-yl)-1-oxo-2,3-dihydro-1H-isoindol-4-yl]acetyl}piperidin-4-yl)methyl]piperazin-1-yl}methyl)piperidin-4-yl]-2,5-difluorobenzamide]	60 to 90	2 to 10
CCOc1cc(-c2ccc(N3CCC(CN4CCN(CC5CCN(C(=O)Cc6ccc7c(c6)CN(C6CCC(=O)NC6=O)C7=O)CC5)CC4)(NC(=O)c4cc(F)ccc4F)CC3)nc2)c2c(C#N)cnn2c1 (stereo not drawn) [Example 112, N-[1-(5-{3-cyano-6-ethoxypyrazolo[1,5-a]pyridin-4-yl}pyridin-2-yl)-4-({4-[(1-{2-[2-(2,6-dioxopiperidin-3-yl)-1-oxo-2,3-dihydro-1H-isoindol-5-yl]acetyl}piperidin-4-yl)methyl]piperazin-1-yl}methyl)piperidin-4-yl]-2,5-difluorobenzamide]	> 90	2 to 10
CCOc1cc(-c2ccc(N3CCC(CN4CCN(CC5CCN(C(=O)Cc6ccc7c(c6)C(=O)N(C6CCC(=O)NC6=O)C7)CC5)CC4)(NC(=O)c4cc(F)ccc4F)CC3)nc2)c2c(C#N)cnn2c1 (stereo not drawn) [Example 113, N-[1-(5-{3-cyano-6-ethoxypyrazolo[1,5-a]pyridin-4-yl}pyridin-2-yl)-4-({4-[(1-{2-[2-(2,6-dioxopiperidin-3-yl)-3-oxo-2,3-dihydro-1H-isoindol-5-yl]acetyl}piperidin-4-yl)methyl]piperazin-1-yl}methyl)piperidin-4-yl]-2,5-difluorobenzamide]	> 90	< 2
CCOc1cc(-c2ccc(N3CCC(CN4CCN(CC5CCN(C(=O)COc6ccc7c(c6)CN(C6CCC(=O)NC6=O)C7=O)CC5)CC4)(NC(=O)c4cc(F)ccc4F)CC3)nc2)c2c(C#N)cnn2c1 (stereo not drawn) [Example 114, N-[1-(5-{3-cyano-6-ethoxypyrazolo[1,5-a]pyridin-4-yl}pyridin-2-yl)-4-[(4-{[1-(2-{[2-(2,6-dioxopiperidin-3-yl)-1-oxo-2,3-dihydro-1H-isoindol-5-yl]oxy}acetyl)piperidin-4-yl]methyl}piperazin-1-yl)methyl]piperidin-4-yl]-2,5-difluorobenzamide]	60 to 90	< 2
CCOc1cc(-c2ccc(N3CCC(CN4CCN(CCC(=O)N5CCN(c6ccc7c(c6)C(=O)N(C6CCC(=O)NC6=O)C7)CC5)CC4)(NC(=O)c4cc(F)ccc4F)CC3)nc2)c2c(C#N)cnn2c1 (stereo not drawn) [Example 115, N-[1-(5-{3-cyano-6-ethoxypyrazolo[1,5-a]pyridin-4-yl}pyridin-2-yl)-4-{[4-(3-{4-[2-(2,6-dioxopiperidin-3-yl)-3-oxo-2,3-dihydro-1H-isoindol-5-yl]piperazin-1-yl}-3-oxopropyl)piperazin-1-yl]methyl}piperidin-4-yl]-2,5-difluorobenzamide]	60 to 90	10 to 100
CCOc1cc(-c2ccc(N3CCC(CN4CCN(CCC(=O)N5CCC(c6ccc7c(c6)C(=O)N(C6CCC(=O)NC6=O)C7)CC5)CC4)(NC(=O)c4cc(F)ccc4F)CC3)nc2)c2c(C#N)cnn2c1 (stereo not drawn) [Example 116, N-[1-(5-{3-cyano-6-ethoxypyrazolo[1,5-a]pyridin-4-yl}pyridin-2-yl)-4-{[4-(3-{4-[2-(2,6-dioxopiperidin-3-yl)-3-oxo-2,3-dihydro-1H-isoindol-5-yl]piperidin-1-yl}-3-oxopropyl)piperazin-1-yl]methyl}piperidin-4-yl]-2,5-difluorobenzamide]	> 90	2 to 10
CCOc1cc(-c2ccc(N3CCC(CN4CCN(CCC(=O)N5CCC(c6ccc7c(c6)C(=O)N(C6CCC(=O)NC6=O)C7=O)CC5)CC4)(NC(=O)c4cc(F)ccc4F)CC3)nc2)c2c(C#N)cnn2c1 (stereo not drawn) [Example 117, N-[1-(5-{3-cyano-6-ethoxypyrazolo[1,5-a]pyridin-4-yl}pyridin-2-yl)-4-{[4-(3-{4-[2-(2,6-dioxopiperidin-3-yl)-1,3-dioxo-2,3-dihydro-1H-isoindol-5-yl]piperidin-1-yl}-3-oxopropyl)piperazin-1-yl]methyl}piperidin-4-yl]-2,5-difluorobenzamide]	> 90	2 to 10
